According to paper PMC4718399 (Nature chemical biology, 2015):

Tests used:
[1] = molecular target: T1, β2R (Homo sapiens, UniProt P07550, N187E, form not given); format: biochemical; conditions: 200μM solubilized lipid; for modulation of β2R activation by solubilized phospholipid: 200μM isoproterenol
[2] = molecular target: T1, β2R; test: Bimane fluorescence spectroscopy; format: biochemical; conditions: for basal (agonist-free) bimane emission λmax: bimane-labelled receptor reconstituted in rHDL of the given lipid, no ligand; for rate and magnitude of change in λmax upon agonist: rHDL of the given lipid, 200 μM isoproterenol, relative to basal fluorescence in detergent
[3] = molecular target: T1, β2R; test: Mass spectrometry quantification of lipids bound to purified β2R; conditions: β2R purified from Sf9 cells with 0.5% DDM

Compound	modulation of β2R activation by solubilized phospholipid [1]	basal (agonist-free) bimane emission λmax [2]	rate and magnitude of change in λmax upon agonist [2]	share of all β2R-bound lipids [3]	basal λmax shift ([1]; 1μM β2R, 500μM DDM, 600μM cholate) [nm]
CCCCCCCC/C=C\CCCCCCCC(=O)OC[C@H](COP(=O)(O)OC[C@H](N)C(=O)O)OC(=O)CCCCCCC/C=C\CCCCCCCC [DOPS]	positive effect albeit not as strong				
CCCCCCCC/C=C\CCCCCCCC(=O)OC[C@H](COP(=O)(O)OCCN)OC(=O)CCCCCCC/C=C\CCCCCCCC [DOPE]	little or no effect	about 450 nm	smallest change and slowest rate of change		
phosphatidylglycerol [PG]				over 16%	
CCCCCCCC/C=C\CCCCCCCC(=O)OC[C@H](COP(=O)(O)OCC(O)CO)OC(=O)CCCCCCC/C=C\CCCCCCCC (stereo partly shown) [DOPG]	strongest positive modulator	about 455 nm	fastest rate of change and the largest shift in λmax	over 7%	4
CCCCCCCC/C=C\CCCCCCCC(=O)OC[C@H](COP(=O)([O-])OCC[N+](C)(C)C)OC(=O)CCCCCCC/C=C\CCCCCCCC [DOPC]	little or no effect	about 450 nm	intermediate		
